The test system of assay [1] is human prostate LNCap tumor cell line. Description: In vitro cell culture growth assay (MTS), LNCap. The settings on record: Homo sapiens, LNCaP, 72 h, read-out: IC50 LNCap.
The target of another assay is PI3K-α (Homo sapiens, UniProt P42336). In words: PI3K-alpha fluorescence polarization assay. (In general: Fluorescence polarisation rises when a labelled molecule tumbles more slowly, as on binding a larger partner.)
The next assay deals with Human mTOR (FLAG-TOR) (Homo sapiens, UniProt P42345). In words: mTOR kinase assay (DELFIA format, purified enzyme). Format: biochemical. The settings on record: read-out: IC50 mTOR.
Sequence of Human mTOR (FLAG-TOR) (P42345 1360-2549 limits assumed): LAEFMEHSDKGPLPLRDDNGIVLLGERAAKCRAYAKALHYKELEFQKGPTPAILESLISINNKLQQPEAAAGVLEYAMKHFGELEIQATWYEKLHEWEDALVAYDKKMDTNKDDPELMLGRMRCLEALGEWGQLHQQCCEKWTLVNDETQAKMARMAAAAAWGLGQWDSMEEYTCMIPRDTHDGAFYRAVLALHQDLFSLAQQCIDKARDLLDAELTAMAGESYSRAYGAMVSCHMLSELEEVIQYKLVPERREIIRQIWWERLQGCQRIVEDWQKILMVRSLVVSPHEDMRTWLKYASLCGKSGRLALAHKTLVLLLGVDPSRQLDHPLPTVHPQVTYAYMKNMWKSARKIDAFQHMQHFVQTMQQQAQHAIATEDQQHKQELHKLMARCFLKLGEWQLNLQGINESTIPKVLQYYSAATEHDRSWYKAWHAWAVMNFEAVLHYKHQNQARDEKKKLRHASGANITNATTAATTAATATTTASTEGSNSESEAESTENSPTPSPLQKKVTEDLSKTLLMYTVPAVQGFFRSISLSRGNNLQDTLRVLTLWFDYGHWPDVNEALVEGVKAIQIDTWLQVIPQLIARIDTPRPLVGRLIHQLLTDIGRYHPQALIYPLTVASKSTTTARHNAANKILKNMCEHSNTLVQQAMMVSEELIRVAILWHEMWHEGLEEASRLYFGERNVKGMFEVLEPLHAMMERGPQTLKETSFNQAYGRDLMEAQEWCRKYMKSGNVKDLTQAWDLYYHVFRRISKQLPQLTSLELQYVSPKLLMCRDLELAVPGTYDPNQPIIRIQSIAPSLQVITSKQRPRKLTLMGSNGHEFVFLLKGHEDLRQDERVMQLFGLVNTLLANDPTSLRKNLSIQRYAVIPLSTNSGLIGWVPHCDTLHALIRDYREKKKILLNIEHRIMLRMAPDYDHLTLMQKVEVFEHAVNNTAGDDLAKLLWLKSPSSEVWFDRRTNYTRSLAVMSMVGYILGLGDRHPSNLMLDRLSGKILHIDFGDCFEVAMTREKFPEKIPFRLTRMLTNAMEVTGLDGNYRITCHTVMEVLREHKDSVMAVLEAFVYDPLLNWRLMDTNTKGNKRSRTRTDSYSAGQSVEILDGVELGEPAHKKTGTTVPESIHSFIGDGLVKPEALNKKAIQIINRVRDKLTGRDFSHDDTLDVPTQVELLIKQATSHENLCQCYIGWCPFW
In another assay the target is PI3K-γ (Homo sapiens, UniProt P48736). In words: PI3K-gamma fluorescence polarization assay.
Sequence of PI3K-γ (P48736 whole entry, species assumed): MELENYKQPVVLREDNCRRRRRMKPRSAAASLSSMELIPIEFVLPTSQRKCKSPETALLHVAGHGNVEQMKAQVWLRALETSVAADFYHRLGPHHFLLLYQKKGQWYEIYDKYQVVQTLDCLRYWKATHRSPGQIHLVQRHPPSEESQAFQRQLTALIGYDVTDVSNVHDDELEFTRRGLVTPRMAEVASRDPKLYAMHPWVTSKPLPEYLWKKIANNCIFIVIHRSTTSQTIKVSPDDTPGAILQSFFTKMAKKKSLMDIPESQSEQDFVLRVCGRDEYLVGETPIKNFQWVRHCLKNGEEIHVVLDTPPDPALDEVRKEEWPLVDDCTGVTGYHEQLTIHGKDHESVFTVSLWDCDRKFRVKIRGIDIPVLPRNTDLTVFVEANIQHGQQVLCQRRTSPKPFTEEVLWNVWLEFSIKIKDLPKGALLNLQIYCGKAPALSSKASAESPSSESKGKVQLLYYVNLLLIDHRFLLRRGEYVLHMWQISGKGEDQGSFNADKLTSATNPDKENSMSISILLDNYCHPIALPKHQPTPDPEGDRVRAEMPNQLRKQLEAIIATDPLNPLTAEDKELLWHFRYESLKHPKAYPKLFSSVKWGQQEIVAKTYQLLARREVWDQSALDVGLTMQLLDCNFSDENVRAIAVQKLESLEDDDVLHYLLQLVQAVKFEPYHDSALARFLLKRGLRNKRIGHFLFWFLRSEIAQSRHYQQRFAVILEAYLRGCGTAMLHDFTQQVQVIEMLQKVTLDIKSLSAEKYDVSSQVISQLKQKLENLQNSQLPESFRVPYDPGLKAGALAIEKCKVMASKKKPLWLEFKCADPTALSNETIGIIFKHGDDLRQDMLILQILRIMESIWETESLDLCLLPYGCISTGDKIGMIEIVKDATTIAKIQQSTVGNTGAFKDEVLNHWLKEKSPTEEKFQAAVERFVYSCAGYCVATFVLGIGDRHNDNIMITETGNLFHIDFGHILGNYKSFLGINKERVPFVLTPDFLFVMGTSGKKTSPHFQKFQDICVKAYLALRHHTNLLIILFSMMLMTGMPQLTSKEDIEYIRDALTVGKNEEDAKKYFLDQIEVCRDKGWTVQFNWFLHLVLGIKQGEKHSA

The text below walks through data of US20090304692A1, “TRIAZINE COMPOUNDS AS PI3 KINASE AND MTOR INHIBITORS” (Wyeth, priority 2008, published 2009).

Like-named read-outs stand apart in the source and are kept apart here.

Sequence of PI3K-α (P42336 whole entry, species assumed): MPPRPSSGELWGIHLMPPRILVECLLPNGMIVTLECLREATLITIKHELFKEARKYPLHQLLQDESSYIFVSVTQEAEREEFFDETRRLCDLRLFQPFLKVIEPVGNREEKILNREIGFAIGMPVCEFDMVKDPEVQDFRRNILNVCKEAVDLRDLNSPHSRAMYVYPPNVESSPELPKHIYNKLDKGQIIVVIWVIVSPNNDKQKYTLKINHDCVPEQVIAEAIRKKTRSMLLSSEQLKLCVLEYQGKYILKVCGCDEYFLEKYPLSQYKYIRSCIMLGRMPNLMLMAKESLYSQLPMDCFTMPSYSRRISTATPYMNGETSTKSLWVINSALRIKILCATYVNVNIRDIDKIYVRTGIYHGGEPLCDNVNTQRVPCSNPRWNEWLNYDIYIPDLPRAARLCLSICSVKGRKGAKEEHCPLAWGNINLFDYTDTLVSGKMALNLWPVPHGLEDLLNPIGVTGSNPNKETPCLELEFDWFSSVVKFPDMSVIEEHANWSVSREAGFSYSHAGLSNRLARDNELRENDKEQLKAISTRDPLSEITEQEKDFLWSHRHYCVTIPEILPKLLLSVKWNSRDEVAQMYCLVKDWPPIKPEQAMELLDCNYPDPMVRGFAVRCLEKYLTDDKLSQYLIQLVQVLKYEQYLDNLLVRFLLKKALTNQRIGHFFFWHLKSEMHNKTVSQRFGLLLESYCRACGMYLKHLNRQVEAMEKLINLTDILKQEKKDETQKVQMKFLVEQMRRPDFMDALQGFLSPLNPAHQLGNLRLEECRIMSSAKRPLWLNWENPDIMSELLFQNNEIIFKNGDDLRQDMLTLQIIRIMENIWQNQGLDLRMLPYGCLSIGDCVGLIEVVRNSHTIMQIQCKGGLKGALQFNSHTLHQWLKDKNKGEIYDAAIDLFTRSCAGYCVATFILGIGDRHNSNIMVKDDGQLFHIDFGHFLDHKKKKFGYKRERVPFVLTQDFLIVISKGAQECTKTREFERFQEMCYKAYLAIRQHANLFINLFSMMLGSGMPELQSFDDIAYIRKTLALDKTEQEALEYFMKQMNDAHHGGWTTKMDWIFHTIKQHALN
Sequence of PI3K-α (P27986 whole entry partner, species assumed): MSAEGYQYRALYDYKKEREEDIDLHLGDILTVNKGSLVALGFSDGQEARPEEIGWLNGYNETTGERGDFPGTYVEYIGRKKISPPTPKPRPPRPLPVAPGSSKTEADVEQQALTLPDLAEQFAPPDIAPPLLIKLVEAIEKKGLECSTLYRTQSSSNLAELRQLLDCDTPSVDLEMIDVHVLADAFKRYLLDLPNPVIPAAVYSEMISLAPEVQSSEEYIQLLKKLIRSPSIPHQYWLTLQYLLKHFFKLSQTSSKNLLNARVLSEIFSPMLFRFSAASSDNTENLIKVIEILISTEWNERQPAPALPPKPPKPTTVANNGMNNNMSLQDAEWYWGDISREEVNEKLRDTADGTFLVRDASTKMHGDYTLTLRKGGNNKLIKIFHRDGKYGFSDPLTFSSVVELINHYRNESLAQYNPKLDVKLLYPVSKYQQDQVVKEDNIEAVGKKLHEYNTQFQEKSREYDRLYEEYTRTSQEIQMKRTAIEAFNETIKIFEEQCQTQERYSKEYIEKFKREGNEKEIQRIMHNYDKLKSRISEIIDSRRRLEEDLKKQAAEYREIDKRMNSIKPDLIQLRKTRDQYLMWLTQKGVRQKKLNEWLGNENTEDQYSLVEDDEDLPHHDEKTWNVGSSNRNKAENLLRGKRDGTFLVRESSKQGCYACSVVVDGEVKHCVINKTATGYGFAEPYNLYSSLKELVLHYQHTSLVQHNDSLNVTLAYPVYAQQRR

On to `CN(C)CC(=O)N1CCN(c2nc(-c3ccc(NC(=O)Nc4ccncc4)cc3)nc(N3CC4CCC(C3)O4)n2)CC1` [Example 112, 1-(4-{4-[4-(N,N-dimethylglycyl)piperazin-1-yl]-6-(8-oxa-3-azabicyclo[3.2.1]oct-3-yl)-1,3,5-triazin-2-yl}phenyl)-3-pyridin-4-ylurea], for which the half-inhibitory concentration (IC50) (in general, the concentration that gives 50% inhibition) turned out to be 300 nM in assay [1], 488 nM at PI3K-α (read-out: IC50 PI3Kα), 12 nM at Human mTOR (FLAG-TOR) and 777 nM at PI3K-γ (read-out: IC50 PI3Kγ).

Turning to `COC(=O)N1CCN(c2nc(-c3ccc(NC(=O)Nc4ccncc4)cc3)nc(N3CC4CCC(C3)O4)n2)CC1` [Example 114, Methyl 4-[4-(8-oxa-3-azabicyclo[3.2.1]oct-3-yl)-6-{4-[(pyridin-4-ylcarbamoyl)amino]phenyl}-1,3,5-triazin-2-yl]piperazine-1-carboxylate], the IC50 was found to be 38 nM in assay [1], 106 nM at PI3K-α (read-out: IC50 PI3Kα), 3.15 nM on Human mTOR (FLAG-TOR) and 1180 nM on PI3K-γ (read-out: IC50 PI3Kγ).

Take `O=C1CCN(c2nc(-c3ccc(NC(=O)Nc4ccncc4)cc3)nc(N3CC4CCC(C3)O4)n2)CC1` [Example 115, 1-(4-(4-(8-oxa-3-azabicyclo[3.2.1]octan-3-yl)-6-(4-oxopiperidin-1-yl)-1,3,5-triazin-2-yl)phenyl)-3-(pyridin-4-yl)urea]: the IC50 in assay [1] was determined as 200 nM; on PI3K-α (read-out: IC50 PI3Kα), 109 nM; on Human mTOR (FLAG-TOR), 3.2 nM; on PI3K-γ (read-out: IC50 PI3Kγ), 2000 nM.

Consider `O=C(Nc1ccncc1)Nc1ccc(-c2nc(N3CCC(O)CC3)nc(N3CC4CCC(C3)O4)n2)cc1` [Example 116, 1-{4-[4-(4-hydroxypiperidin-1-yl)-6-(8-oxa-3-azabicyclo[3.2.1]oct-3-yl)-1,3,5-triazin-2-yl]phenyl}-3-pyridin-4-ylurea], for which the 50% inhibitory concentration (IC50) in assay [1] was 70 nM; at PI3K-α (read-out: IC50 PI3Kα), 1740 nM; at Human mTOR (FLAG-TOR) it was 2.7 nM; on PI3K-γ (read-out: IC50 PI3Kγ), 2310 nM.

As to `O=C(Nc1ccncc1)Nc1ccc(-c2nc(N3CCC(NCc4ccccc4)CC3)nc(N3CC4CCC(C3)O4)n2)cc1` [Example 117, 1-(4-{4-[4-(benzylamino)piperidin-1-yl]-6-(8-oxa-3-azabicyclo[3.2.1]oct-3-yl)-1,3,5-triazin-2-yl}phenyl)-3-pyridin-4-ylurea], the IC50 in assay [1] worked out at 700 nM; at PI3K-α (read-out: IC50 PI3Kα), 177 nM; at Human mTOR (FLAG-TOR) it was 83 nM; on PI3K-γ (read-out: IC50 PI3Kγ) it was 3000 nM.

Take `CNC1CCN(c2nc(-c3ccc(NC(=O)Nc4ccncc4)cc3)nc(N3CC4CCC(C3)O4)n2)CC1` [Example 118, 1-(4-{4-[4-(methylamino)piperidin-1-yl]-6-(8-oxa-3-azabicyclo[3.2.1]oct-3-yl)-1,3,5-triazin-2-yl}phenyl)-3-pyridin-4-ylurea]: the IC50 in assay [1] amounted to 3000 nM; on PI3K-α (read-out: IC50 PI3Kα), 379 nM; on Human mTOR (FLAG-TOR), 195 nM; on PI3K-γ (read-out: IC50 PI3Kγ), 297 nM.

In the case of `CCNC1CCN(c2nc(-c3ccc(NC(=O)Nc4ccncc4)cc3)nc(N3CC4CCC(C3)O4)n2)CC1` [Example 119, 1-(4-{4-[4-(ethylamino)piperidin-1-yl]-6-(8-oxa-3-azabicyclo[3.2.1]oct-3-yl)-1,3,5-triazin-2-yl}phenyl)-3-pyridin-4-ylurea], the IC50 was 2800 nM in assay [1], 1240 nM on PI3K-α (read-out: IC50 PI3Kα), 140 nM at Human mTOR (FLAG-TOR) and 7530 nM at PI3K-γ (read-out: IC50 PI3Kγ).

On to `CN(C)CCNC1CCN(c2nc(-c3ccc(NC(=O)Nc4ccncc4)cc3)nc(N3CC4CCC(C3)O4)n2)CC1` [Example 120, 1-{4-[4-(4-{[2-(dimethylamino)ethyl]amino}piperidin-1-yl)-6-(8-oxa-3-azabicyclo[3.2.1]oct-3-yl)-1,3,5-triazin-2-yl]phenyl}-3-pyridin-4-ylurea], for which the IC50 in assay [1] is 1200 nM; at PI3K-α (read-out: IC50 PI3Kα), 262 nM; at Human mTOR (FLAG-TOR), 79 nM; at PI3K-γ (read-out: IC50 PI3Kγ), 1550 nM.

In the case of `CN1CCN(C2CCN(c3nc(-c4ccc(NC(=O)Nc5ccncc5)cc4)nc(N4CC5CCC(C4)O5)n3)CC2)CC1` [Example 122, 1-(4-(4-(8-oxa-3-azabicyclo[3.2.1]octan-3-yl)-6-(4-(4-methylpiperazin-1-yl)piperidin-1-yl)-1,3,5-triazin-2-yl)phenyl)-3-(pyridin-4-yl)urea], the IC50 in assay [1] worked out at 900 nM; at PI3K-α (read-out: IC50 PI3Kα), 1160 nM; at Human mTOR (FLAG-TOR), 74.5 nM; at PI3K-γ (read-out: IC50 PI3Kγ) it was 9500 nM.

Turning to `O=C(Nc1ccncc1)Nc1ccc(-c2nc(N3CCC(NCCO)CC3)nc(N3CC4CCC(C3)O4)n2)cc1` [Example 123, 1-(4-(4-(8-oxa-3-azabicyclo[3.2.1]octan-3-yl)-6-(4-(2-hydroxyethylamino)piperidin-1-yl)-1,3,5-triazin-2-yl)phenyl)-3-(pyridin-4-yl)urea], the 50% inhibitory concentration (IC50) turned out to be 4100 nM in assay [1], 760 nM on PI3K-α (read-out: IC50 PI3Kα), 115 nM on Human mTOR (FLAG-TOR) and 6350 nM on PI3K-γ (read-out: IC50 PI3Kγ).

Take `O=C(Nc1ccncc1)Nc1ccc(-c2nc(N3CCC(NCCN4CCOCC4)CC3)nc(N3CC4CCC(C3)O4)n2)cc1` [Example 124, 1-(4-(4-(8-oxa-3-azabicyclo[3.2.1]octan-3-yl)-6-(4-(2-morpholinoethylamino)piperidin-1-yl)-1,3,5-triazin-2-yl)phenyl)-3-(pyridin-4-yl)urea]: the IC50 was found to be 1950 nM in assay [1], 1650 nM on PI3K-α (read-out: IC50 PI3Kα), 155 nM on Human mTOR (FLAG-TOR) and 9650 nM at PI3K-γ (read-out: IC50 PI3Kγ).

As for `COC(=O)CNC1CCN(c2nc(-c3ccc(NC(=O)Nc4ccncc4)cc3)nc(N3CC4CCC(C3)O4)n2)CC1` [Example 125, Methyl 2-(1-(4-(8-oxa-3-azabicyclo[3.2.1]octan-3-yl)-6-(4-(3-pyridin-4-ylureido)phenyl)-1,3,5-triazin-2-yl)piperidin-4-ylamino)acetate], the IC50 was 1000 nM in assay [1], 840 nM at PI3K-α (read-out: IC50 PI3Kα), 16 nM on Human mTOR (FLAG-TOR) and 8750 nM at PI3K-γ (read-out: IC50 PI3Kγ).

With `NC(=O)CNC1CCN(c2nc(-c3ccc(NC(=O)Nc4ccncc4)cc3)nc(N3CC4CCC(C3)O4)n2)CC1` [Example 126, 2-(1-(4-(8-oxa-3-azabicyclo[3.2.1]octan-3-yl)-6-(4-(3-pyridin-4-ylureido)phenyl)-1,3,5-triazin-2-yl)piperidin-4-ylamino)acetamide], the IC50 in assay [1] amounted to 1300 nM; on PI3K-α (read-out: IC50 PI3Kα), 510 nM; on Human mTOR (FLAG-TOR), 19.5 nM; on PI3K-γ (read-out: IC50 PI3Kγ), 5510 nM.

Consider `CC(C)(C)OC(=O)CNC1CCN(c2nc(-c3ccc(NC(=O)Nc4ccncc4)cc3)nc(N3CC4CCC(C3)O4)n2)CC1` [Example 127, Tert-butyl 2-(1-(4-(8-oxa-3-azabicyclo[3.2.1]octan-3-yl)-6-(4-(3-pyridin-4-ylureido)phenyl)-1,3,5-triazin-2-yl)piperidin-4-ylamino)acetate], for which the IC50 in assay [1] was found to be 1350 nM; on PI3K-α (read-out: IC50 PI3Kα), 1390 nM; on Human mTOR (FLAG-TOR), 51.5 nM; on PI3K-γ (read-out: IC50 PI3Kγ) it was 4730 nM.

As to `COC(=O)Nc1ccc(-c2nc(-c3ccc(NC(=O)Nc4ccc(N5CCN(C)CC5)cc4)cc3)nc(N3CC4CCC(C3)O4)n2)cc1` [Example 145, methyl(4-{4-[4-({[4-(4-methylpiperazin-1-yl)phenyl]carbamoyl}amino)phenyl]-6-(8-oxa-3-azabicyclo[3.2.1]oct-3-yl)-1,3,5-triazin-2-yl}phenyl)carbamate], the half-inhibitory concentration (IC50) in assay [1] worked out at 120 nM; at PI3K-α (read-out: IC50 PI3Kα), 574 nM; at Human mTOR (FLAG-TOR) it was 9 nM; on PI3K-γ (read-out: IC50 PI3Kγ), 1000 nM.

As to `CN1CCN(c2ccc(NC(=O)Nc3ccc(-c4nc(-c5ccc(NC(=O)Nc6ccc(N7CCN(C)CC7)cc6)cc5)nc(N5CC6CCC(C5)O6)n4)cc3)cc2)CC1` [Example 147, N′,N′″-{[6-(8-oxa-3-azabicyclo[3.2.1]oct-3-yl)-1,3,5-triazine-2,4-diyl]di-4,1-phenylene}bis{1-[4-(4-methylpiperazin-1-yl)phenyl]urea}], the 50% inhibitory concentration (IC50) in assay [1] was 1000 nM; at PI3K-α (read-out: IC50 PI3Kα), 1930 nM; on Human mTOR (FLAG-TOR) it was 6 nM; at PI3K-γ (read-out: IC50 PI3Kγ) it was 6830 nM.

`CN1CCN(c2ccc(NC(=O)Nc3ccc(-c4nc(-c5ccc(NC(=O)Nc6ccncc6)cc5)nc(N5CC6CCC(C5)O6)n4)cc3)cc2)CC1` [Example 148, 1-[4-(4-methylpiperazin-1-yl)phenyl]-3-{4-[4-(8-oxa-3-azabicyclo[3.2.1]oct-3-yl)-6-{4-[(pyridin-4-ylcarbamoyl)amino]phenyl}-1,3,5-triazin-2-yl]phenyl}urea]: the IC50 in assay [1] was 680 nM; at PI3K-α (read-out: IC50 PI3Kα) it was 300 nM; on Human mTOR (FLAG-TOR), 8 nM; at PI3K-γ (read-out: IC50 PI3Kγ) it was 620 nM.

`NCCNc1nc(-c2ccc(NC(=O)Nc3cccnc3)cc2)nc(N2CC3CCC(C2)O3)n1` [Example 149, 1-(4-{4-[(2-aminoethyl)amino]-6-(8-oxa-3-azabicyclo[3.2.1]oct-3-yl)-1,3,5-triazin-2-yl}phenyl)-3-pyridin-3-ylurea]: the half-maximal inhibitory concentration (IC50) turned out to be 32000 nM in assay [1], 889 nM on PI3K-α (read-out: IC50 PI3Kα), 80 nM on Human mTOR (FLAG-TOR) and 1400 nM on PI3K-γ (read-out: IC50 PI3Kγ).

For `O=C(Nc1ccc(-c2nc(Nc3ccccc3)nc(N3CC4CCC(C3)O4)n2)cc1)Nc1cccnc1` [Example 150, 1-{4-[4-anilino-6-(8-oxa-3-azabicyclo[3.2.1]oct-3-yl)-1,3,5-triazin-2-yl]phenyl}-3-pyridin-3-ylurea], the IC50 in assay [1] is 290 nM; on PI3K-α, 832 nM; on Human mTOR (FLAG-TOR) it was 5 nM; on PI3K-γ, more than 10000 nM.

Regarding `O=C(Nc1ccc(-c2nc(NC3CNC3)nc(N3CC4CCC(C3)O4)n2)cc1)Nc1cccnc1` [Example 154, 1-{4-[4-(azetidin-3-ylamino)-6-(8-oxa-3-azabicyclo[3.2.1]oct-3-yl)-1,3,5-triazin-2-yl]phenyl}-3-pyridin-3-ylurea], the IC50 in assay [1] worked out at 22000 nM; at PI3K-α (read-out: IC50 PI3Kα), 275 nM; at Human mTOR (FLAG-TOR) it was 64 nM; on PI3K-γ (read-out: IC50 PI3Kγ) it was 3820 nM.
